Source: ChEMBL document CHEMBL1201862, “PubChem BioAssay data set” (2004)
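Step 1: Grow cells in 96-well plates. Step 2: Expose to compound for 48 hours at 5 concentrations. Step 3: Interpolate endpoints linearly; if unreached, use highest concentration. GI50 = concentration required for 50% inhibition of growth.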 The source made the active and inactive calls. Rule as the data show it: active = GI50 up to about 1.1 µM and inactive = higher.

Legend:
Experiment in all cases: NCI tumour cell line growth inhibition, 48 h
[1] = system: EKVX
[2] = system: HCT-116
[3] = system: HOP-92
[4] = system: HT-29
[5] = system: KM12
[6] = system: LOX IMVI
[7] = system: M14
[8] = system: NCI-H522
[9] = system: OVCAR-5
[10] = system: OVCAR-8
[11] = system: RPMI-8226
[12] = system: SF-268
[13] = system: SF-295
[14] = system: SN12C
[15] = system: SNB-19
[16] = system: SW-620
[17] = system: U-251
[18] = system: UACC-257
[19] = system: UACC-62

Measured: GI50

CC1=NOC(=O)/C1=C/c1ccc2c(c1)OCO2
inactive: [1] 77.3 µM | [2] 34 µM | [3] 30.2 µM | [4] 24.4 µM | [5] 19.1 µM | [6] 19 µM | [7] 35.3 µM | [8] 38.5 µM | [9] 37.1 µM | [10] 25.4 µM | [11] 21.8 µM | [12] 34.8 µM | [13] 26.7 µM | [14] 25.4 µM | [15] 30.7 µM | [16] 21.1 µM | [17] 18.7 µM | [18] 73.5 µM | [19] 21.5 µM

C=O.NNCCc1n[nH]c(=O)n1N
inactive: [1] > 100 µM | [2] > 100 µM | [3] > 100 µM | [4] > 100 µM | [5] > 100 µM | [6] > 100 µM | [7] > 100 µM | [8] > 100 µM | [9] > 100 µM | [10] > 100 µM | [11] > 100 µM | [12] > 100 µM | [13] > 100 µM | [14] > 100 µM | [15] > 100 µM | [16] > 100 µM | [17] > 100 µM | [18] > 100 µM | [19] > 100 µM

COc1cc(C)c2c(c1C=O)Oc1c(c(C)c(O)c3c1C(O)OC3=O)OC2=O (stereo unspecified) [STICTIC ACID]
inactive: [1] 32.6 µM | [2] 36.8 µM | [3] 99.3 µM | [4] 41.8 µM | [5] 19.6 µM | [6] 28.4 µM | [7] 37.4 µM | [8] 24.9 µM | [9] > 100 µM | [10] 31.4 µM | [11] 16 µM | [12] 21.4 µM | [13] 49.2 µM | [14] > 100 µM | [15] 14.5 µM | [16] 57.9 µM | [17] 33.5 µM | [18] 47.9 µM | [19] 25.6 µM

C=CC/N=C(\S)Nc1sc2c(c1C(=O)OCC)CC(C)CC2 (stereo unspecified)
inactive: [1] 28.1 µM | [2] 24.8 µM | [3] 33 µM | [4] 21.5 µM | [5] 34.8 µM | [6] 32.9 µM | [7] 24 µM | [8] 20.6 µM | [9] 30.3 µM | [10] 36.7 µM | [11] 23.1 µM | [12] 35 µM | [13] 21.1 µM | [14] 29.9 µM | [15] 26.3 µM | [16] 32.8 µM | [17] 32.6 µM | [18] 20.8 µM | [19] 20.6 µM
